# Data as given in article PMC8708666, “Screening of Self-Assembling of Collagen IV Fragments into Stable Structures Potentially Useful in Regenerative Medicine” (International Journal of Molecular Sciences, 2021).
# Tests used:
# [1] = CD study of self-organization into structures mimicking the collagen triple helix; assay type: physicochemical; parameters: key to Ability to Mimic the Structure of the Collagen Helix: +++: peptides that were able to mimic the spatial structure of collagen at 4 °C, 20 °C and 40 °C; +: a fragment mimicking the spatial structure of collagen only at 4 °C; fragments that do not have the ability to aggregate into stable three-dimensional structures; conditions: CD at 4 °C, 20 °C and 40 °C after 24 h incubation; for ability to self-organize into structures mimicking the triple helix (CD): water, 0.1 mg/mL
# Source text: The next stage of the research was to check whether peptides 1–33 and 2.1–2.4 have the ability to self-organize, enabling the formation of structures mimicking the structure of the triple helix characteristic of collagens, including the COL domain of type IV collagen. The method of circular dichroism was used in the research, allowing both the secondary and tertiary structure of peptides and proteins to be determined. This method can also be successfully used to observe the process of protein self-organization depending on the temperature or pH. […] A characteristic feature of triple helix collagens is the maximum at about 220 nm and the minimum at about 190–200 nm. Based on literature data, the CD spectrum corresponding to the triple helix characteristic of collagens as a function of temperature was simulated (Figure 9j). The main factors stabilizing the collagen triple helix are the hydrogen bonds between the hydrogen atom of the amino group and the oxygen atom of the carbonyl group. These are relatively weak bonds, and their stability depends, inter alia, on temperature. Therefore, the stability of the collagen triple helix changes with the change of this factor. Due to the fact that the studied collagen fragments can be potentially used in regenerative medicine, it was necessary to check the stability of the structure in the temperature range as close as possible to physiological conditions. Therefore, the tests were performed at 4 °C, 20 °C and 40 °C after incubation for 24 h. The incubation process was to enable the self-assembly to form structures that mimic the triple helix of collagen. […] In the spectra, the presence of a characteristic maximum at a wavelength of about 220 nm and a minimum at about 190–200 nm was observed. However, the most important fact is that these peptides formed stable three-dimensional structures even at 40 °C.
# The CD spectra were recorded using a Jasco J-1500 instrument (Jasco, Cracow, Poland) and quartz cuvettes with 1 mm optical path lengths. The measurements were acquired in the range of 190–270 nm at temperatures of 4 °C, 20 °C and 40 °C by taking points every 5 nm, with a scan rate of 100 nm per min, an integration time of 1 s, and a bandwidth of 4 nm. The samples were prepared in MiliQ purity water with a final concentration of 0.1 mg/mL. Samples before CD measurements were incubated for 24 h. at 4 °C, 20 °C and 40 °C using a Lauda thermostat.
# [2] = Microscopic examination of peptide aggregates stained with Congo Red; assay type: physicochemical; conditions: phosphate buffer pH 7.2, 37.5 °C, 7 days
# Description: In addition to CD studies, microscopic studies of peptides 1–33 and 2.1–2.4 stained with Congo Red were also performed. This method of visualization of peptide aggregates is a typical method of studying β-sheet structures in amyloid-type fibers.
# In order to initiate aggregation, peptides were dissolved in a phosphate buffer solution of pH 7.2 and a concentration of 250 μM (approx. […] of peptide per 1 mL of solution) and incubated at 37.5 °C for 7 days.
# Congo Red solution with a concentration of […] was prepared by dissolving the dye (Sigma-Aldrich) (17.42 mg; 0.025 mmol) in phosphate buffer (pH = 7.2) (10 mL) with the following composition: 100 mM NaH2PO4/Na2HPO4, 137 mM NaCl and 10% EtOH. Ethyl alcohol was added to the buffer to counteract the formation of dye micelles. A sample for microscopic analysis (peptide solution) was centrifuged at 12,000–14,000 rpm to precipitate. In the next step, the solution was decanted and the residue was washed three times with water to remove excess dye. Then, a suspension of the peptide in water was applied to a microscope slide. The samples were dried in a stream of air at room temperature and analyzed under polarized light.
# The obtained structures were analyzed using a Delta Optical Genetic Pro (Warsaw, Poland) light microscope.
# α1β1 integrin (ITGα1β1) = α1β1 integrin (ITGα1β1) (Homo sapiens, UniProt P05556+P56199); assay: MST determination of Kd for labeled α1β1 integrin and collagen IV fragments; assay type: binding
# α1β1 integrin (ITGα1β1), sequence (P56199 29-1141 limits assumed): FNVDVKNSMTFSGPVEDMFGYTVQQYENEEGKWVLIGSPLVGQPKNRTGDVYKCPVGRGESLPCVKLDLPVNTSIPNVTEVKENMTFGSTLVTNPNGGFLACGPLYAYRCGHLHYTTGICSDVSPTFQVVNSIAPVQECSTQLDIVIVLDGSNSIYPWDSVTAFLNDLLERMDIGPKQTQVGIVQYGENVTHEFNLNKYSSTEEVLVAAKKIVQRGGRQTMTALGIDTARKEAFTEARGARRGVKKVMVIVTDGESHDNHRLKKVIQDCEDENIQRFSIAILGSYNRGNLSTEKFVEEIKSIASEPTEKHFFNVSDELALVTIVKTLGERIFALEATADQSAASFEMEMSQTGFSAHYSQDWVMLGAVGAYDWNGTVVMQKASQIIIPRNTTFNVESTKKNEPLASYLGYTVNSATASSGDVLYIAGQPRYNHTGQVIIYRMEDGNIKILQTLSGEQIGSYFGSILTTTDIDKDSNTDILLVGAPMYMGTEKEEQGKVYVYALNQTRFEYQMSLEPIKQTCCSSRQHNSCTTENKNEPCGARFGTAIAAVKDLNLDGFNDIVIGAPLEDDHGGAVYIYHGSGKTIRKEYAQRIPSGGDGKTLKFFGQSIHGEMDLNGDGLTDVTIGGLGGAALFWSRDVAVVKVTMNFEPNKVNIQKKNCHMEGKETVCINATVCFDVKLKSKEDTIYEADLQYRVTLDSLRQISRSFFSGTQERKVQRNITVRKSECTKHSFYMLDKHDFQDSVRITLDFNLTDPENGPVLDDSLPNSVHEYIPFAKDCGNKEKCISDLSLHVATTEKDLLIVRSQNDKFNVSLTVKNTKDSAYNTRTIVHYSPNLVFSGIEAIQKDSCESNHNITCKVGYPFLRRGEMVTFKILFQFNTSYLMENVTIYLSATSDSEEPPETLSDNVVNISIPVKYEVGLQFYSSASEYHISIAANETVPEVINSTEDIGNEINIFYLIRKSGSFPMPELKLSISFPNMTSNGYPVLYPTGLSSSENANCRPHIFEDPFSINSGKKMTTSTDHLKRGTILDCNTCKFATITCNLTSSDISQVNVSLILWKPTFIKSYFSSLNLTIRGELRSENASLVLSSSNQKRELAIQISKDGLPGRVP
# α1β1 integrin (ITGα1β1), sequence (P05556 21-728 limits assumed): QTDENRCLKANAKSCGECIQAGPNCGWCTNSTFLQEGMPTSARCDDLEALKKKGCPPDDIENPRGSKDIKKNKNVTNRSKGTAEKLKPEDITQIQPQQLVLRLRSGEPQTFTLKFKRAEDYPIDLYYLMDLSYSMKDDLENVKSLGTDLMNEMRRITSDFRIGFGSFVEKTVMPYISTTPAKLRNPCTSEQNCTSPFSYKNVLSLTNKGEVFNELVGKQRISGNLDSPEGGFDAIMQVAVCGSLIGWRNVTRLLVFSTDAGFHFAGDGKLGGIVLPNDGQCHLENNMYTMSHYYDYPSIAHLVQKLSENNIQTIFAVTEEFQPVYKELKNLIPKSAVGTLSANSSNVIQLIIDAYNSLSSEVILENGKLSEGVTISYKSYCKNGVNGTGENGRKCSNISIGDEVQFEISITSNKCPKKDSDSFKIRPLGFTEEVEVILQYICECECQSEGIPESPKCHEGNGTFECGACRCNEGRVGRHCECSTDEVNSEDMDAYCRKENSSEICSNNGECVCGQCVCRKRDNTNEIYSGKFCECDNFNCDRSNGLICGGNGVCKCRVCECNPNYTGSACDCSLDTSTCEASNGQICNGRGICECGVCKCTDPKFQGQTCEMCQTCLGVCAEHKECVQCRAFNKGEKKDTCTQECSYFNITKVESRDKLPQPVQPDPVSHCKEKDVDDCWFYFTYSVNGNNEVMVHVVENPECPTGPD
# Description: The tests were performed using the Microscale Thermophoresis (MST) technique [86]. […] For MST experiment His-tagged ITGα1β1 was labeled using a fluorescent dye, which enable a site-specific and stable noncovalent fluorescence labeling of polyhistidine-tagged proteins. The concentrations of labeled ITGα1β1 were kept constant at 25 nM, whereas the peptides were used as titration ligands with increasing concentrations.
# The α1β1 integrin concentration was kept constant (25 nM), while the non-labeled binding partner collagen IV peptides were used at increasing concentrations as the titration ligand. The MST measurement was performed at 80% or 100% (for peptide 4) LED power and medium (40%) MST power. An MST-on time 4 s was used for analysis and a Kd (µM ± µM confidence) was derived for these interactions (n ≥ 3 independent measurements, error bars represent standard deviation).
# • Preparation of Materials for MST Analysis • (1) ITGα1β1—a solution with a concentration of 9.3 µM was prepared. For this, 50 µL of sterile PBS (filtered through a 0.22 µm filter) was added to the protein. […] The fluorescent dye OG488 (ex = 498 nm, ex = 526 nm) provide an efficient method for site-specific and stable noncovalent fluorescence labeling of polyhistidine-tagged proteins. • (3) A 0.05% Tween20 solution in PBS (PBST) was prepared. • Testing the Affinity of the Dye to the Protein […]
Substance,ability to self-organize into structures mimicking the triple helix (CD) [1],structure of aggregates stained with Congo Red [2],Ability to Mimic the Structure of the Collagen Helix [1],"Kd (α1β1 integrin (ITGα1β1); labeled His-tagged ITGα1β1 25 nM, 22 °C, MST-on time 4 s, Kd ± confidence)",ability to bind to ITGα1β1 (in words) (α1β1 integrin (ITGα1β1); labeled ITGα1β1 25 nM)
^21AGEKSYGKPC^30 [Peptide 1],not found,fibrous structures resembling amyloid structures,–,–,–
^23EKSYGKPCGGQDC^35 [Peptide 2.1],not found,fibrous structures resembling amyloid structures,–,–,–
^41CFPEKGARGR^50 [Peptide 2],have the ability to self-organize to form structures that mimic the structure of the triple helix,only amorphous structures,–,–,–
^81PGLLGPYGPK^90 [Peptide 3],not found,fibrous structures resembling amyloid structures,–,–,–
^251GFPKGKKGSK^260 [Peptide 6],have the ability to self-organize to form structures that mimic the structure of the triple helix,only amorphous structures,–,–,–
^311GPPGQQGKKG^320 [Peptide 7],only at 4 °C,fibrous structures,–,–,–
^471LKGIKGDSGF^480 [Peptide 9],not found,fibrous structures resembling amyloid structures,–,–,–
^541KGKKGEPILS^550 [Peptide 11],not found,fibrous structures resembling amyloid structures,–,–,–
^641PGQQGLPGSK^650 [Peptide 12],only at 4 °C,fibrous structures,–,–,–
^671PGFPGPKGSR^680 [Peptide 13],only at 4 °C,fibrous structures,–,–,–
^711GFPGPRGEKG^720 [Peptide 14],have the ability to self-organize to form structures that mimic the structure of the triple helix,only amorphous structures,–,–,–
^721LPGFPGLPGK^730 [Peptide 15],have the ability to self-organize to form structures that mimic the structure of the triple helix,only amorphous structures,+++,no binding,no binding
^781PGLKGVHGKP^790 [Peptide 16],not found,fibrous structures resembling amyloid structures,–,–,–
^821GIKGKSGLPG^830 [Peptide 17],only at 4 °C,fibrous structures,–,–,–
^841PGKKGTRGKK^850 [Peptide 18],only at 4 °C,fibrous structures,–,–,–
^891LSGPKGEKGS^900 [Peptide 20],not found,fibrous structures resembling amyloid structures,–,–,–
^921LKGIPGSTGK^930 [Peptide 21],not found,fibrous structures resembling amyloid structures,–,–,–
^951PVGIPSPRRP^960 [Peptide 22],not found,fibrous structures resembling amyloid structures,–,–,–
^961MSNLWLKGDK^970 [Peptide 23],not found,fibrous structures resembling amyloid structures,–,–,–
^1001GAPGLPGIIK^1010 [Peptide 24],not found,fibrous structures resembling amyloid structures,–,–,–
^1101IGNIGFPGNK^1110 [Peptide 26],have the ability to self-organize to form structures that mimic the structure of the triple helix,only amorphous structures,–,–,–
^1211PGIGIGAPGK^1220 [Peptide 27],not found,fibrous structures resembling amyloid structures,–,–,–
^1221PGLRGQKGDR^1230 [Peptide 28],only at 4 °C,fibrous structures,–,–,–
^1311KGMRGEPGFM^1320 [Peptide 29],not found,fibrous structures resembling amyloid structures,–,–,–
^1446MPGQSMRVGYTL^1457 [Peptide 2.2],only at 4 °C,fibrous structures,–,–,–
^1451MRVGYTLVKH^1460 [Peptide 31],not found,fibrous structures resembling amyloid structures,–,–,–
^1453VGYTLVKHSQSE^1464 [Peptide 2.3],only at 4 °C,fibrous structures,–,–,–
^1520CHYARRNDKSYW^1531 [Peptide 2.4],only at 4 °C,fibrous structures,–,–,–
^1521HYARRNDKSY^1530 [Peptide 32],not found,fibrous structures resembling amyloid structures,–,–,–
^1661AGQLHTRVSR^1670 [Peptide 33],–,fibrous structures,–,–,–
